{
  "source": "patent US20160175214A1",
  "about": "“ANHYDROUS COSMETIC COMPOSITION FOR TOPICAL APPLICATION” (The Procter & Gamble Company, priority 2014, published 2016)",
  "experiment": "Solubility in hydrophobic anhydrous, glycol free, antiperspirant free stick formulations",
  "assay_type": "physicochemical",
  "description": "Additional considerations regarding exemplary Vitamin B5 derivatives may apply. For example, in order to deliver Vitamin B5 (or a derivative thereof) from an anhydrous, hydrophobic, glycol free and antiperspirant free cosmetic stick, a corresponding matrix soluble form or derivative of Vitamin B5 must be used to achieve the desired benefits of hair softening, shave bump reduction and wound healing from shave cut damage. For example, if an incompatible or insoluble form of Vitamin B5 is used, such as panthenol, this will not form a homogenous one phase solution when the ingredients are blended and heated together from the melt.\nAs such, the Vitamin B5 derivative utilized should be soluble in the anhydrous, hydrophobic, glycol free and antiperspirant free matrix.",
  "data": [
    {"molecule": "CCOCC(C)(C)C(O)C(=O)NCCCO", "note": "(stereo not shown) [Panthenyl Ethyl Ether]", "values": [
      {"measurement": "Solublility in hydrophobic Anhydrous, glycol free, antiperspirant free Stick formulations", "result": "Soluble"}
    ]}
  ]
}
